Read-outs that look alike come from different tables or passages of the source.
Tests used:
Tie2 (h) = target: T1, Tie2 (h) (Homo sapiens, UniProt Q02763); assay: Eurofins kinase panel; assay type: biochemical; conditions: read-out: Inhibition rate (%)
T1 construct: purchased Eurofins (KinaseProfiler)

[1] = tested on: 20 additional tumor cell lines with low expression or activation of FGFR and CSF-1R; assay: Cell proliferation assay, non-dependent panel; assay type: cell-based; conditions: 20 cell lines
Method: (§1) The cancer cell lines indicated in Figure 3 were seeded in 96-well plates at a low density in growth medium. The next day, appropriate controls or the designated concentrations of the compounds were added to each well, and the cells were incubated for 72 h. HUVECs (passage 3) were seeded in 96-well plates in growth medium overnight and transferred to serum-free medium for 24 h. The following day, appropriate controls or the designated concentrations of the compounds were added to each well, and 100 ng/mL growth factor (bFGF or VEGF) was added to the indicated wells. The cells were incubated for 48 h. Finally, cell proliferation was determined using a sulforhodamine B (SRB) assay or a cell counting kit-8 (CCK-8) assay. […] IC50 values for proliferation curves were calculated using a 4-parameter logistic nonlinear regression model with SoftMax Pro Software (Molecular Devices, San Jose, USA).

PKBα(h) = target: T2, PKBα(h) (Homo sapiens, UniProt P31749); assay: Eurofins kinase panel; assay type: biochemical; conditions: read-out: Inhibition rate (%)
T2 construct: purchased Eurofins (KinaseProfiler)

BMDM (CSF-1) = assay: Macrophage survival (CCK-8); assay type: cell-based, murine; conditions: Mus musculus, BMDM, 168 h; 7 days, mean ± SD
Method: Murine bone marrow and human monocytes were stimulated with CSF-1 for 7 days together with the indicated inhibitor, and cell viability was evaluated by the CCK-8 assay. The IC50 values are shown as the mean ± SD (nM) from two independent tests. B-E, To test the impact of 3D185 on the polarization of CSF-1-induced macrophages, murine bone marrow cells and human monocytes were induced to mature into macrophages with CSF-1 for 7 days and then stimulated with CSF-1, IL-4 and IL-13 for an additional 48 h. The expression of the markers MHC-II (b), CD86 (c), and CD206 (d) on induced murine macrophages and CD206 expression on induced human macrophages (e) were determined by flow cytometry, and the mean fluorescence intensity (MFI) was analyzed with FlowJo. Representative data from two independent experiments. f Murine bone marrow cells (left panel) and human monocytes (right panel) were induced to mature into macrophages with CSF-1 for 7 days and then stimulated with CSF-1, IL-4 and IL-13 and treated with vehicle or the indicated inhibitor for an additional 48 h. Then, all cells were collected to count viable cells by staining with trypan blue
Murine bone marrow-derived macrophages (BMDMs) and PBMCs were used for cell viability studies. BMDMs were harvested by flushing the tibias and femurs of 6- to 8-week-old C57BL/6 mice and depleting red blood cells (RBCs) by RBC lysis (Biogems). For BMDM survival, the cells were cultured for 7 days in RPMI 1640 containing 10% fetal bovine serum (FBS), 100 U/mL penicillin, 100 μg/mL streptomycin and 100 ng/mL mouse CSF-1 (or CSF-2) with or without the tested compounds. PBMCs were obtained from HemaCare and cultured for 7 days in RPMI 1640 containing 10% fetal bovine serum (FBS), 100 U/mL penicillin, 100 μg/mL streptomycin and 100 ng/mL human CSF-1 (or CSF-2) with or without the tested compounds. Cell viability was measured using the CCK-8 assay. For IL-4/IL-13-induced macrophage survival analysis, viable cells were counted by trypan blue exclusion.

MAPKAP-K2(h) = target: T3, MAPKAP-K2(h) (Homo sapiens, UniProt P49137); assay: Eurofins kinase panel; assay type: biochemical; conditions: read-out: Inhibition rate (%)
T3 construct: purchased Eurofins (KinaseProfiler)

CSF-1R = CSF-1R (Homo sapiens, UniProt P07333); assay: Z'-LYTE kinase assay; assay type: biochemical; conditions: mean ± SD
PDGFRα = target: T4, PDGFRα (Homo sapiens, UniProt P16234); assay: Kinase inhibition assay (ELISA); assay type: biochemical
T4 construct: purchased Eurofins (Fremont, United States)
Method: (§2) Active FGFR1–4, VEGFR1, KDR, VEGFR3, PDGFRα and PDGFRβ proteins were purchased from Eurofins (Fremont, United States), and kinase activity was assessed using ELISA, as previously reported. […]. Increasing concentrations of ATP were diluted for the kinase reaction in the ATP competition assay. CSF-1R kinase activity was analyzed using the Z’-LYTE™ Kinase Assay Kit (Thermo Fisher, United States). The assay formats are described in the SelectScreen Kinase Profiling Service Zlyte protocol. IC50 values were calculated by dose-response curve fitting using Prism (Graph Pad).

PDGFRβ = target: T5, PDGFRβ (Homo sapiens, UniProt P09619); assay: Kinase inhibition assay (ELISA); assay type: biochemical
T5 construct: purchased Eurofins (Fremont, United States)
Method: as §2

VEGFR1 = target: T6, VEGFR1 (Homo sapiens, UniProt P17948); assay: Kinase inhibition assay (ELISA); assay type: biochemical
T6 construct: purchased Eurofins (Fremont, United States)
Method: as §2

VEGFR3 = target: T7, VEGFR3 (Homo sapiens, UniProt P35916); assay: Kinase inhibition assay (ELISA); assay type: biochemical
T7 construct: purchased Eurofins (Fremont, United States)
Method: as §2

FGFR1 = target: T8, FGFR1 (Homo sapiens, UniProt P11362); assay: Kinase inhibition assay (ELISA); assay type: biochemical
T8 construct: purchased Eurofins (Fremont, United States)
T8 sequence (P11362 22-822): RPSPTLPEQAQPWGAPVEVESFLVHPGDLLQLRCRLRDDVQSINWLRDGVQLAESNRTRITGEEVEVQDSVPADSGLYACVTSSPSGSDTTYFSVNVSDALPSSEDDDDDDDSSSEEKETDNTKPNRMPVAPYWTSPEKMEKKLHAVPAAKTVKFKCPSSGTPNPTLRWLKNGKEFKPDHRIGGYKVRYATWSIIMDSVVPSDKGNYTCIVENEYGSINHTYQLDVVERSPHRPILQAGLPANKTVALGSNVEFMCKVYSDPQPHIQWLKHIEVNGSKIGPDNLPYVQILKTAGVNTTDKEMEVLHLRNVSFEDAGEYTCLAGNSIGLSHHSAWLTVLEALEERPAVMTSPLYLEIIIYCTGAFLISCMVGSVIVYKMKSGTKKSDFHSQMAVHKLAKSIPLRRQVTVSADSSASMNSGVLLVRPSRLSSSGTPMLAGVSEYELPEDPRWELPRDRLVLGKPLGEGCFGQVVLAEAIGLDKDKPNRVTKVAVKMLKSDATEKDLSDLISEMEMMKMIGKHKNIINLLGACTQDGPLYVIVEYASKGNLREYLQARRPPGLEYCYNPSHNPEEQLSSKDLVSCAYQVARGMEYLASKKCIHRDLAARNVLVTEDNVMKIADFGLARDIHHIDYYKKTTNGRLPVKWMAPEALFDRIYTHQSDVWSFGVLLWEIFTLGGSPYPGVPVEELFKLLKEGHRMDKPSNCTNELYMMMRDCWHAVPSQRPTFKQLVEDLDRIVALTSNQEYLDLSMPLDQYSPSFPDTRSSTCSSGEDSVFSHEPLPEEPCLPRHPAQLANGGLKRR
Method: as §2

PASK(h) = target: T9, PASK(h) (Homo sapiens, UniProt Q96RG2); assay: Eurofins kinase panel; assay type: biochemical; conditions: read-out: Inhibition rate (%)
T9 construct: purchased Eurofins (KinaseProfiler)
T9 sequence (Q96RG2 whole entry): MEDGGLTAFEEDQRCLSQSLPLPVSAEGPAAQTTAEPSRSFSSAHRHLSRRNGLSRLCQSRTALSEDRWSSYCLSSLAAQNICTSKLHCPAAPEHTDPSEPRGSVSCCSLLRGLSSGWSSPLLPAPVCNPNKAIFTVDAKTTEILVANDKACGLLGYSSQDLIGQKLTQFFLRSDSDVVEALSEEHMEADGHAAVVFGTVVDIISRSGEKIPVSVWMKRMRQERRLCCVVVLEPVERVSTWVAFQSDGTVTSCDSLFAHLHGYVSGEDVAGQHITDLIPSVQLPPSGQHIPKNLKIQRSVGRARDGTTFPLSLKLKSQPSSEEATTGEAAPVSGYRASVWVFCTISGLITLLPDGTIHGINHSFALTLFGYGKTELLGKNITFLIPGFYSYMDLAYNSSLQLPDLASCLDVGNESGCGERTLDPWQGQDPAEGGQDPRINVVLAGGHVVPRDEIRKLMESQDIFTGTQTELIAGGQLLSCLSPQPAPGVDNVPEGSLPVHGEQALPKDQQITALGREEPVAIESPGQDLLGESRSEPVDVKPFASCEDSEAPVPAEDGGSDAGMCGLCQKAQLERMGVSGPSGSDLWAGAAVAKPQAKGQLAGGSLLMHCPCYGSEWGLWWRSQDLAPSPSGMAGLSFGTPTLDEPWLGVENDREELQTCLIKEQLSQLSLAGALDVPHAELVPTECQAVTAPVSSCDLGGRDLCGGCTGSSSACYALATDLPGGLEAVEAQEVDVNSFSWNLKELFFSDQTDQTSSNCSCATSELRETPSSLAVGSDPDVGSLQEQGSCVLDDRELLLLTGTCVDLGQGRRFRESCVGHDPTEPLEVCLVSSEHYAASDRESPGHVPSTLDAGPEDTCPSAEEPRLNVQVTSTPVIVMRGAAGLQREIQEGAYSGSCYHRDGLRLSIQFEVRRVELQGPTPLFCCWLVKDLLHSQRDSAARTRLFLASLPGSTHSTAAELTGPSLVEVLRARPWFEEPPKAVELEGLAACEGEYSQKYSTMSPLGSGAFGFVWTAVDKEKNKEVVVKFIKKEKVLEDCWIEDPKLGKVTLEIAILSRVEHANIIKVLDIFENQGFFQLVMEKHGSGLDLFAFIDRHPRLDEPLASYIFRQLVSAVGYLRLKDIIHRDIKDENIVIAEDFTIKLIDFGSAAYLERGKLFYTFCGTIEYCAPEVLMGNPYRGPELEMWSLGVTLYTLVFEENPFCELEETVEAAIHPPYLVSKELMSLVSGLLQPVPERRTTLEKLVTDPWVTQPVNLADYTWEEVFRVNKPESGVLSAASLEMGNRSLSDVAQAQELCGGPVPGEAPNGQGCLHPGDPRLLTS

JNK1α1(h) = target: T10, JNK1α1(h) (Homo sapiens, UniProt P45983); assay: Eurofins kinase panel; assay type: biochemical; conditions: read-out: Inhibition rate (%)
T10 construct: purchased Eurofins (KinaseProfiler)

[2] = tested on: 11 FGFR- or CSF-1R-dependent cancer cell lines; assay: Cell proliferation assay, sensitive panel; assay type: cell-based
Method: as §1

IRR(h) = target: T11, IRR(h) (Homo sapiens, UniProt P14616); assay: Eurofins kinase panel; assay type: biochemical; conditions: read-out: Inhibition rate (%)
T11 construct: purchased Eurofins (KinaseProfiler)
T11 sequence (P14616 27-1297): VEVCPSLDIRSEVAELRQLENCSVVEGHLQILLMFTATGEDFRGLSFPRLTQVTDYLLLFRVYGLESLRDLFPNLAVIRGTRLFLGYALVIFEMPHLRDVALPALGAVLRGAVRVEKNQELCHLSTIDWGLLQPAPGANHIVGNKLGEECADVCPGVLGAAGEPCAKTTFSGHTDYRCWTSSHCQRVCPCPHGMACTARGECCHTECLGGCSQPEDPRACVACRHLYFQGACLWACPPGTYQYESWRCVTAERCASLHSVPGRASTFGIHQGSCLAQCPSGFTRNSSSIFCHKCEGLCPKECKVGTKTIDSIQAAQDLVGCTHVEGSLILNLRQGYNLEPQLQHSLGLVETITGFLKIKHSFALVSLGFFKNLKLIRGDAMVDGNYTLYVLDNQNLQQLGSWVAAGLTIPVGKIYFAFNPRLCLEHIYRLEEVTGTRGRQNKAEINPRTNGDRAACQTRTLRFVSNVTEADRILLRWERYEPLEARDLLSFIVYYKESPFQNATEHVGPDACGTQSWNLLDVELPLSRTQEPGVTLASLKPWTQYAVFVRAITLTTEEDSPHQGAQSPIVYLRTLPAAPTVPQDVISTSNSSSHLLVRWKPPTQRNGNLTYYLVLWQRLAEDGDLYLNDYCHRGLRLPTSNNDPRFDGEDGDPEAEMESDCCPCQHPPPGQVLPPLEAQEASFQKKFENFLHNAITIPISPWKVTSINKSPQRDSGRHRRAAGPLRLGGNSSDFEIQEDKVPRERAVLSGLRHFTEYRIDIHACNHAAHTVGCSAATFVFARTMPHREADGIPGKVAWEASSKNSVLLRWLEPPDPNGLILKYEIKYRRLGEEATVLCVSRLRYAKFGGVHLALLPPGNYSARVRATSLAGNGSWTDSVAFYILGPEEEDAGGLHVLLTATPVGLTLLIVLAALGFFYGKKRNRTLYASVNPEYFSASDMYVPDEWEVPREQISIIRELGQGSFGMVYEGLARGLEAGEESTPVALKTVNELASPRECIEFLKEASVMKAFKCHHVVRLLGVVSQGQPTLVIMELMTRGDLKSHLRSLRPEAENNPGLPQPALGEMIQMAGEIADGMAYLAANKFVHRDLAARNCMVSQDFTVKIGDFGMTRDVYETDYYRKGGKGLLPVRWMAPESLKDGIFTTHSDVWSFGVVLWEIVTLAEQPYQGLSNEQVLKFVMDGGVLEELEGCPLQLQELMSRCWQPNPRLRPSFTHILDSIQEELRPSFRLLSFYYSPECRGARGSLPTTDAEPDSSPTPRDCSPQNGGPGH

PDHK4(h) = target: T12, PDHK4(h) (Homo sapiens, UniProt Q16654); assay: Eurofins kinase panel; assay type: biochemical; conditions: read-out: Inhibition rate (%)
T12 construct: purchased Eurofins (KinaseProfiler)
T12 sequence (Q16654 whole entry): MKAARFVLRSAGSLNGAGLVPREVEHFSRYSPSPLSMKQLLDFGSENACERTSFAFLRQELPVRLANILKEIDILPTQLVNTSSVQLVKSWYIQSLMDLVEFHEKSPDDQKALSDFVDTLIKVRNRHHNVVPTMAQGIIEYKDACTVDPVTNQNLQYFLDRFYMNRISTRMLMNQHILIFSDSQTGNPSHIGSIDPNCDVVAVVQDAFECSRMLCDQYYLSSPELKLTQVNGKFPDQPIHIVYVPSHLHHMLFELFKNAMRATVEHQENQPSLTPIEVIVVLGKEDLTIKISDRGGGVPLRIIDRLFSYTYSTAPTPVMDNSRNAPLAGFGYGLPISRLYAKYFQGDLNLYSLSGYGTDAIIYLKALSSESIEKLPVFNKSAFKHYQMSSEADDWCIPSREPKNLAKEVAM

GSK3β(h) = target: T13, GSK3β(h) (Homo sapiens, UniProt P49841); assay: Eurofins kinase panel; assay type: biochemical; conditions: read-out: Inhibition rate (%)
T13 construct: purchased Eurofins (KinaseProfiler)

T1 sequence (Q02763 23-1124): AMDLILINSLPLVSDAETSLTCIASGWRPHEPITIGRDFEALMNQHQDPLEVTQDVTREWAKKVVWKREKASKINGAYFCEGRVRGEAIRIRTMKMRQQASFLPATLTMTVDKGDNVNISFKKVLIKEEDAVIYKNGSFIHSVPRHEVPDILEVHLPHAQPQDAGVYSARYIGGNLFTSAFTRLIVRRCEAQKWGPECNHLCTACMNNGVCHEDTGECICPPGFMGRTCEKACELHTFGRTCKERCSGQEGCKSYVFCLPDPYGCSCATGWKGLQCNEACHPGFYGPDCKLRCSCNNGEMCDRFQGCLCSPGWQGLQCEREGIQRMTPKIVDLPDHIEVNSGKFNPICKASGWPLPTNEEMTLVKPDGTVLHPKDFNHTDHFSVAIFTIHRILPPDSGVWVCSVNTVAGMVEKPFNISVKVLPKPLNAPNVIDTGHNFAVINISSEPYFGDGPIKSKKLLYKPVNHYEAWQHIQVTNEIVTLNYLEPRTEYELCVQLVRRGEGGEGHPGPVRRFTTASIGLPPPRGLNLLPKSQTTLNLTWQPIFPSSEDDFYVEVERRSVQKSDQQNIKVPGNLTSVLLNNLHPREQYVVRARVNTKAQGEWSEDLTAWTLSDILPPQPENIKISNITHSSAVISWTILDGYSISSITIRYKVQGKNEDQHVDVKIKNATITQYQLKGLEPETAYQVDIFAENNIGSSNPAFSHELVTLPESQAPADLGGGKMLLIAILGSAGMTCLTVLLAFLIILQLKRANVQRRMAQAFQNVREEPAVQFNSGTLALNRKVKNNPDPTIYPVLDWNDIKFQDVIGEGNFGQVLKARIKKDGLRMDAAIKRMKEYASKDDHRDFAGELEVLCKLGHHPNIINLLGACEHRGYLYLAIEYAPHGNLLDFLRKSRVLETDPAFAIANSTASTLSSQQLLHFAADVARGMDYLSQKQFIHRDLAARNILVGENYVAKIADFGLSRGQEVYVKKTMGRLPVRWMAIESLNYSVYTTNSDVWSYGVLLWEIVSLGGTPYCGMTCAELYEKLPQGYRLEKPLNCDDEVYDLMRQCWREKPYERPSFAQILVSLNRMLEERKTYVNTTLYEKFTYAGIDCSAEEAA

COc1cc(OC)c(Cl)c(-c2ccc3c(NC(=O)c4ccc(N5CCNC(C)(C)C5)cc4)n[nH]c3n2)c1Cl [3D185]
inhibition at 0.01 µM (Tie2 (h); 10 nM): 19%
inhibition at 0.1 µM (Tie2 (h); 100 nM): 64%
inhibition at 1 µM (Tie2 (h); 1000 nM): 95%
IC50 [1]: > 1 µM
inhibition at 0.01 µM (PKBα(h); 10 nM): -6%
inhibition at 0.1 µM (PKBα(h); 100 nM): -8%
inhibition at 1 µM (PKBα(h); 1000 nM): -7%
IC50 (BMDM (CSF-1)): 0.0578 µM
inhibition at 0.01 µM (MAPKAP-K2(h); 10 nM): 0%
inhibition at 0.1 µM (MAPKAP-K2(h); 100 nM): 10%
inhibition at 1 µM (MAPKAP-K2(h); 1000 nM): 0%
IC50 (CSF-1R): 0.0038 µM
IC50 (PDGFRα): > 1 µM
IC50 (PDGFRβ): > 1 µM
IC50 (VEGFR1): > 1 µM
IC50 (VEGFR3): > 1 µM
mode of inhibition (FGFR1; ATP competition assay): ATP-competitive inhibitor
selectivity for FGFR over PDGFRα, PDGFRβ, VEGFR1 and VEGFR3 (FGFR1; kinase assays): > 2000 fold
IC50 (FGFR1; mean ± SD): 0.0005 µM
inhibition at 0.01 µM (PASK(h); 10 nM): -15%
inhibition at 0.1 µM (PASK(h); 100 nM): 1%
inhibition at 1 µM (PASK(h); 1000 nM): 10%
inhibition at 0.01 µM (JNK1α1(h); 10 nM): -3%
inhibition at 0.1 µM (JNK1α1(h); 100 nM): -4%
inhibition at 1 µM (JNK1α1(h); 1000 nM): 3%
IC50 ([2]; FGFR1-, FGFR2-, FGFR3- and CSF-1R-mediated proliferation, read-out: IC50 values, range over cell lines): 0.0009 to 0.0368 µM
IC50 ([2]; mean over CSF-1R dependent and FGFRs dependent lines, read-out: Mean IC50): 0.0173 µM
inhibition at 0.01 µM (IRR(h); 10 nM): -5%
inhibition at 0.1 µM (IRR(h); 100 nM): 5%
inhibition at 1 µM (IRR(h); 1000 nM): 1%
inhibition at 0.01 µM (PDHK4(h); 10 nM): -2%
inhibition at 0.1 µM (PDHK4(h); 100 nM): -2%
inhibition at 1 µM (PDHK4(h); 1000 nM): 0%
inhibition at 0.01 µM (GSK3β(h); 10 nM): 0%
inhibition at 0.1 µM (GSK3β(h); 100 nM): 5%
inhibition at 1 µM (GSK3β(h); 1000 nM): -5%
